Results on one compound are retold here after patent US20090142323A1, “METHODS FOR TREATING A DISORDER BY REGULATING GPRC6A” (priority 2007, published 2009).

Assay [1] relates to bone marrow stromal cells (BMSC). Kind of assay: phospho-ERK in bone marrow stromal cells from wild-type and GPRC6A-/- mice. It counts as cell-based, mouse. As to the method: The femurs and tibias from 8-week-old wild-type and GPRC6A^−/− mice were dissected, the ends of the bones were cut, and marrow was flushed out with 2 mL of ice-cold a-MEM containing 10% FBS using a needle and syringe. A suspension of bone marrow cells was obtained by repeated aspiration of the cell preparation through a 22-gauge needle, and nucleated cells were counted with a hemocytometer. Cells were seeded into 6-well plates at a density of 3×10^7 cells/mL and cultured for three days in a-MEM supplemented with 10% FBS, 100 kU/L of sodium penicillin G and 100 mg/L of streptomycin sulfate in a humidified incubator with 5% CO2 and 95% air at a temperature of 37° C. On day 3, all nonadherent cells were then removed with the first medium change and then the adherent cells (representing bone marrow-derived mesenchymal stem cells, BMSCs) were grown for additional periods of up 3 days in the same medium. After overnight quiescence, the cells were stimulated for 5 minutes by testosterone and p-estradiol at the concentrations as indicated.

The target in assay [2] is T1, GPRC6A (Mus musculus, UniProt Q8K4Z6).
T1 sequence (Q8K4Z6 21-928): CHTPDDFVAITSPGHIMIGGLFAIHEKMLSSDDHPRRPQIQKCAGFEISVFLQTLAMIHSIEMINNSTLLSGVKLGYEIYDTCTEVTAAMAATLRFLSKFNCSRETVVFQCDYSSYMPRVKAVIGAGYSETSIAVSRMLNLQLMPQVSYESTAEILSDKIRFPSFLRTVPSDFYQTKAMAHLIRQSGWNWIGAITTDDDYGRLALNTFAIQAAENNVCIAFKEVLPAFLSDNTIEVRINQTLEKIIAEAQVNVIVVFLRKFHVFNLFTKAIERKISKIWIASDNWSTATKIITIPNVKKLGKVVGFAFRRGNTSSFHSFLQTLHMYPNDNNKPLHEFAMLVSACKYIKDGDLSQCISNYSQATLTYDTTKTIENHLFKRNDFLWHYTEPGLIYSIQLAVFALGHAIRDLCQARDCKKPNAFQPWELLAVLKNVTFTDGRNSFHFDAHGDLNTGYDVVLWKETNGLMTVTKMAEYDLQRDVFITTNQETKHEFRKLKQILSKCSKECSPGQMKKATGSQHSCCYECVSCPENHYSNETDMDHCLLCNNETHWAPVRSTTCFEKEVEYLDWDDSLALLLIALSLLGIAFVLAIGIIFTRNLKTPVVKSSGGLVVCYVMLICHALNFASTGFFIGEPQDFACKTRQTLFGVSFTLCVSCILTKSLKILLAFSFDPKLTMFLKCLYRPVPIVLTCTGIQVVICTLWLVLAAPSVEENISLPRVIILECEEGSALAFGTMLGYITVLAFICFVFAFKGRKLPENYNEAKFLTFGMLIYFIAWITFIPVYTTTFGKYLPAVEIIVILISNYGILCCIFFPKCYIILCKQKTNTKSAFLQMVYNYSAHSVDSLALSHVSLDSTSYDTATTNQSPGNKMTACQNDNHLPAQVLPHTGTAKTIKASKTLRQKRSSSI
As to the kind of experiment: [3H]testosterone binding to membrane fractions of HEK-293 cells. Also on record: expressed in transfected cells. As to the method: Membranes from HEK and HEK stably transfected with GPRC6A were prepared and stored at −80° C. The membrane preparations were diluted to 0.15-0.5 mg protein/ml in binding buffer (in mM: 20 HEPES, 100 NaCl, 6 MgCl2, 1 EDTA, and 1 EGTA) immediately before all binding assays. Total binding saturation curves were generated by incubating 250 μl of membrane preparation and 250 μl of [^3H]Testoterone (Testosterone-[1,2,6,7-3H(N)]; 1 mCi; Sigma, Chemicals, St. Louis, Mo.), dissolved in binding buffer (in mM: 20 HEPES, 100 NaCl, 6 MgCl2, 1 EDTA, and 1 EGTA) for final reaction concentrations ranging from 0.3 to 25 nM, for 40 min. After the 40-min incubation, the binding reactions were terminated by rapidly filtering 400 μl of the reaction over a presoaked Whatman, glass-fiber filter (pore size, 1 μm) to separate bound steroid from free steroid. The filter was immediately washed twice with 12.5 ml of wash buffer (PBS) and placed in a scintillation vial. Radioactivity was counted in a liquid scintillation counter (Beckman Instruments, Fullerton, Calif.). All steps of the binding assays were conducted at 4° C.

Assay [3] deals with T1, GPRC6A. As to the kind of experiment: phospho-ERK activation in HEK-293 cells transfected with GPRC6A (immunoblot). Also on record: expressed in transfected cells; host or cells: HEK-293. The format is cell-based. As to the method:
Equal amounts of lysates were subjected to 10% SDS-PAGE, and phospho-ERK1/2 levels were determined by immunoblotting using antiphospho-ERK1/2 mitogen-activated protein kinase antibody (Cell Signaling Technology). […] An anti-peptide antibody was raised in a rabbit against a peptide ([…] (SEQ ID NO: 27)) corresponding to a sequence in the extracellular domain of mouse GPRC6A (in exon 1 of mouse GPRC6A gene) produced by Abgent (San Diego, Calif.). For phospho-ERK, the phospho-ERK1/2 levels were determined by immunoblotting using anti-phospho-ERK1/2 mitogen-activated protein kinase antibody (Cell Signaling Technology). Urinary β2-microglobulin was detected by rabbit polyclonal anti-β2-microglobulin antibody (Abcam Inc.). For aromatase expression analysis, the rabbit polyclonal anti-aromatase antibody (Abcam Inc.) and goat anti-rabbit IgG HRP secondary antibody (Santa Cruz Biotechnology Inc.) were used. Mouse anti-Actin antibody (Santa Cruz Biotechnology Inc.) was used for control protein loading.

[4] abbreviates: HEK-293 cells transfected with GPRC6A.

Take `C[C@]12CC[C@H]3[C@@H](CCC4=CC(=O)CC[C@@]43C)[C@@H]1CC[C@@H]2O` [testosterone]: the “stimulation of phospho-ERK in BMSC” value in assay [1] (BMSC from GPRC6A-/- mice, testosterone up to 80 nM) is on record as “only minimal effects”; in assay [1] (BMSC from wild-type mice) it was “substantial stimulation of ERK”. The figures for the “specific testosterone binding to plasma membranes” value at GPRC6A [2] (setting [4]) and on GPRC6A [2] (untransfected cells) were “Significant amounts of specific testosterone binding” and “negligible specific binding”, respectively. Besides, the “medium calcium concentration required for testosterone activation of GPRC6A” value on GPRC6A [3] is > 0.5 mM. The “activation of phospho-ERK in cytosol and nucleus” value on GPRC6A [3] (GPRC6A expressing HEK-293 cells) was “stimulated activation of phospho-ERK in both the cytosol and nucleus”. Also, the “GPRC6A-mediated activation of phospho-ERK” value on GPRC6A [3] (setting [4]) is listed as “stimulated extracellular signal-regulated kinase phosphorylation (phospho-ERK) in a dose-dependent fashion”.
